Calls of active or inactive are those of the source. Cut-off read from the data, not from the text of the source, for most assays here: actives have a measured EC50 and inactives only a lower limit.
Experiments:
[1] = DRD fibroblast viability loss – cell-based, non-viral oncogenic, luminescence, dose response (AID 1934); format: functional; conditions: Homo sapiens
BJ [2] = assay: cells; format: functional, cell-based; conditions: Homo sapiens
BJ [3] = assay: BJ-TERT-LT-ST fibroblast viability loss – cell-based, RAS-independent, luminescence, dose response (AID 1935); format: functional; conditions: Homo sapiens;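 note: BJ fibroblasts immortalized with TERT plus LT and ST oncogenes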
[4] = Luminescence Cell-Based Dose Retest to Confirm Inhibitors of Cancer Stem Cells. [Related pubchem assays (depositor defined):AID2717, AID2721]; format: functional; conditions: Homo sapiens
BJ [5] = assay: BJ-TERT fibroblast viability loss – cell-based, RAS-independent, luminescence, dose response (AID 1933); format: functional; conditions: Homo sapiens
INS1 = assay: INS-1E survival protection against cytokine death – cell-based, luminescence, retest, dose response (AID 449756); format: functional; conditions: Rattus norvegicus;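 note: cell death triggered by IL-1 beta plus TNF-alpha plus IFN-gamma mixture; protective hits raise ATP signal compared with cytokine alone wells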
[6] = target: T1, Corticotropin-releasing factor receptor 2/Corticotropin-releasing factor-binding protein (Homo sapiens, UniProt P24387+Q13324); assay: activators of CRF receptor 2 with binding protein – uHTS hits, confirmation (AID 602473); format: functional; conditions: read-out: EC50_Mean
T1 sequence (Q13324 whole entry): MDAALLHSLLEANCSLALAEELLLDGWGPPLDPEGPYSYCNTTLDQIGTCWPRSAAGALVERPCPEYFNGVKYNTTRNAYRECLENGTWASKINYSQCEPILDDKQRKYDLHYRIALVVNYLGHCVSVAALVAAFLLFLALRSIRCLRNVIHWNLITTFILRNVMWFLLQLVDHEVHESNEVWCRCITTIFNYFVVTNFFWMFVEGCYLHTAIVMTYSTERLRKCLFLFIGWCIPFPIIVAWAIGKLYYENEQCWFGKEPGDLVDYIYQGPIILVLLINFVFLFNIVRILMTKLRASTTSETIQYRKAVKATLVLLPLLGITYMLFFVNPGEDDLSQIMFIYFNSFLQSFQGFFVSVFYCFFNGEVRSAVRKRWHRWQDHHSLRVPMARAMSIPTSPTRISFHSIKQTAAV
T1 sequence (P24387 whole entry): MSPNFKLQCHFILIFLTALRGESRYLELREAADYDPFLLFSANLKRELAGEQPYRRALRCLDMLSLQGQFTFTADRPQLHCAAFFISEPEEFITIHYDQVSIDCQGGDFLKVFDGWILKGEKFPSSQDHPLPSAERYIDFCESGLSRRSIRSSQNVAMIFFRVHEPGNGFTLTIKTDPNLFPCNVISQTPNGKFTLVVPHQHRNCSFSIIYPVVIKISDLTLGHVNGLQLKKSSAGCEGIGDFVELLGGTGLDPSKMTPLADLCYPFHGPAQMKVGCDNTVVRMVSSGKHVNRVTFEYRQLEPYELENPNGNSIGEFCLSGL

[7] = viability of PTEN-deleted HCT116 cells – cell-based, HCT116 PTEN knockout, dose response (AID 1047); format: functional;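 note: HCT116 colon tumor cells with PTEN knocked out; cells exposed to compound for 60 hours before readout; potency for loss of cell viability measured by luminescence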
[8] = viability of HCT116 lacking mutant beta-catenin – cell-based, human colon tumor, dose response (AID 1045); format: functional;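 note: HCT116 colon tumor cells with beta catenin knocked out; cells exposed to compound for 60 hours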
[9] = target: T2, Zinc finger protein mex-5 (Caenorhabditis elegans, UniProt Q9XUB2); assay: potency of MEX-5 RNA-binding blockers – biochemical, C. elegans, fluorescence polarization, dose response (AID 1960)
T2 sequence (Q9XUB2 whole entry): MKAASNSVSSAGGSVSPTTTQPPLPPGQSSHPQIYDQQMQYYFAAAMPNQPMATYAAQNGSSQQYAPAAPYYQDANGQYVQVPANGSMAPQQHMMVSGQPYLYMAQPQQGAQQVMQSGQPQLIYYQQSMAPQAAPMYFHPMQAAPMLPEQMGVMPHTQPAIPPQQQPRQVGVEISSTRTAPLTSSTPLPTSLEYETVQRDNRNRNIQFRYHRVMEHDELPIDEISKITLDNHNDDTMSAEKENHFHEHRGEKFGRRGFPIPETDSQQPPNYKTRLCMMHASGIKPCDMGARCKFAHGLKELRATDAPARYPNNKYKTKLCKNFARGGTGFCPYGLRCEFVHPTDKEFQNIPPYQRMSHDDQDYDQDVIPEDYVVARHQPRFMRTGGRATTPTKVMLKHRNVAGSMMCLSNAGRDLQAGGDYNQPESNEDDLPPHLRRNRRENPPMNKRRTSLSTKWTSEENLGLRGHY

[10] = target: T3, RNA-binding protein pos-1 (Caenorhabditis elegans, UniProt G5EF15); assay: disruptors of C. elegans POS-1 RNA interaction – biochemical, fluorescence polarization, dose response (AID 1964);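 note: purified POS-1 fused to maltose binding protein made in E. coli; potency of compounds blocking POS-1 binding to fluorescent RNA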
T3 sequence (G5EF15 whole entry): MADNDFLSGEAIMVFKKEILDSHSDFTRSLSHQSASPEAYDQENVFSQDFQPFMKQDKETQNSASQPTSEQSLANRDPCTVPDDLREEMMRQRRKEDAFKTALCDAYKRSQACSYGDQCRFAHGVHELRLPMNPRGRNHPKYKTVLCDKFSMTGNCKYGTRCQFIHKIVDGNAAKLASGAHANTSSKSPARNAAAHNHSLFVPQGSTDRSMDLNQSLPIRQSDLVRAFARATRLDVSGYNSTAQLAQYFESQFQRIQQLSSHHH

Streptococcus = assay: GAS UMAA2166 growth inhibition – luminescence, BacTiterGlo, counter-screen for streptokinase expression inhibitor project, dose response (AID 1915); format: functional, organism-based;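 note: potency for reduction of bacterial viability or growth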
[11] = test system: Streptococcus sp. 'group A'; assay: Streptococcus pyogenes SK(-)GAS viability under kanamycin – luminescence, BacTiterGlo, confirmation, counter-screen for streptokinase expression inhibitor project, dose response (AID 1900); format: functional, organism-based
[12] = Trypanosoma cruzi growth suppression in host cells – NIH3T3 host cells, beta-gal luminescence, confirmation (AID 2044); format: functional, cell-based;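 note: intracellular parasites grown in NIH/3T3 mouse fibroblasts as host cells; luminescent beta-galactosidase reporter signal from transgenic T. cruzi replicating inside host cells; inhibitors lower the luminescence signal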
[13] = NIH3T3 cell viability loss – ATP luminescence, mouse fibroblasts, counter-screen, dose response (AID 2010); format: functional, cell-based;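 note: cells exposed to compound for about 90 hours before reading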
Vero = assay: cells; format: functional; conditions: Chlorocebus sabaeus
[14] = viability of uninfected HEp-2 cells – cell-based, HTS, cytotoxicity control for RSV inhibitor project, dose response (AID 2410); format: functional; conditions: human respiratory syncytial virus
cells = format: functional
H4 = assay: Luminescence Cell-Based Dose Response HTS to Identify Activators of 5'UTR Stem-Loop Driven Prion Protein mRNA Translation in H4 Neuroglioblastoma Cells. [Related pubchem assays: 1829 (Project Summary), 1814 (Primary HTS)]; format: functional; conditions: Homo sapiens
[15] = Luminescence Cell-Based Dose Response HTS to Identify Activators of Luciferase Translation or Activity in H4 […] Cells. [Related pubchem assays: 1829 (Project Summary), 1814 (Primary HTS)]; format: functional
[16] = HIV-1 AD8 envelope cell-cell fusion blockers – cherry-pick, dose response (AID 652062); format: functional, cell-based;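 note: luciferase signal from cell-cell fusion driven by HIV-1 clade B AD8 Env; potency is for inhibitors of fusion seen as a drop in luminescence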

N#CC1=C(N)N2C(=C(C#N)C1c1ccc(Br)cc1)Nc1ccccc12 (stereo not drawn)
EC50 [1]: 9.84 µM (active)
EC50 (BJ [2]): 62.4 µM (active)
EC50 (BJ [3]): > 150 µM (inconclusive)
AC50 [4]: 0.794 µM (active)
EC50 (BJ [5]): 11.8 µM (inconclusive)
AC50 (INS1): 3.56 µM (active)

COc1ccc(NC(=O)C(c2cc3c(cc2[N+](=O)[O-])OCO3)N(C)c2ccccc2)cc1 (stereo not drawn)
EC50 [6]: > 53 µM (inactive)

CCC1(C)Cc2c(sc3nnn(CC(=O)Nc4cccc5ccccc45)c(=O)c23)CO1 (stereo not drawn)
EC50 [7]: 25.8 µM (active)
EC50 [8]: 23.9 µM (active)

O=[N+]([O-])c1ccc2nc(O)c(/C=C(\O)c3ccccc3)nc2c1
EC50 [9]: > 300 µM (inconclusive)
EC50 [10]: 20.1 µM (active)

COc1cc(/C=C/c2ccc3cccc(O)c3n2)c(Br)cc1O
EC50 (Streptococcus): 2.68 µM (active)
EC50 [11]: 0.865 µM (active)
EC50 [12]: 3.92 µM (active)
EC50 [13]: > 60 µM (not active)
CC50 (Vero): 8.46 µM (active)

CCc1nc2sc3c(c2c(=O)n1NC(=O)CCl)CCCC3
EC50 [1]: > 150 µM (not active)
EC50 (BJ [2]): > 150 µM (not active)
EC50 (BJ [3]): > 150 µM (not active)
CC50 [14]: 10.2 µM (active)
EC50 (BJ [5]): > 150 µM (not active)

O=C1NC(=O)N(Cc2ccc(F)cc2)C(=O)/C1=C\c1ccc([N+](=O)[O-])s1
IC50 (cells): 24.7 µM (active)

Cc1cc(O)c(CN(C)C)c2c1C(=O)/C(=C/c1ccco1)O2
EC50 [9]: 39.8 µM (active)
EC50 [10]: 32.1 µM (active)

O=C(NCC1CCCCC1)c1ccc(F)cc1Cl
EC50 (H4): > 120 µM (not active)
EC50 [15]: 107 µM (active)

CCOC(=O)CC(=O)Nc1ccc(C(=O)OCC)cc1
IC50 (cells): 22.4 µM (active)

COc1ccc(/C=C/c2nc(S(=O)(=O)c3ccccc3)c(NCCCN(C)C)o2)cc1OC
AC50 [16]: 14.6 µM (active)

C/C(=N\NC(=O)c1cc([N+](=O)[O-])cc([N+](=O)[O-])c1)c1ccco1
EC50 [12]: 0.768 µM (active)
EC50 [13]: > 60 µM (not active)
IC50 (cells): 3.35 µM (active)

CCN(CC)S(=O)(=O)c1ccc(N/C=C2\C(=O)N(C)C(=O)C(C#N)=C2C)cc1
EC50 [9]: 44.4 µM (active)
EC50 [10]: 32.7 µM (active)

Cc1ccsc1C1NC(=O)c2c(sc3c2CCN(C)C3)N1 (stereo not drawn)
EC50 [6]: > 53 µM (inactive)

CCN(CC)c1ccc(N=Nc2nc[nH]n2)cc1
EC50 [9]: > 300 µM (inconclusive)
EC50 [10]: 73.4 µM (active)

O=C(NCC1OCCc2ccccc21)c1ccc(NC(=O)c2cccc(Br)c2)cc1 (stereo not drawn)
EC50 [7]: 25.2 µM (active)
EC50 [8]: 36.9 µM (active)
